Measurements published in US20120029187A1, “HALOALKYLSULFONANILIDE DERIVATIVE” (Nissan Chemical Industries, Ltd., priority 2009, published 2012).

How the values were obtained:
Assay type in all cases: in vivo
[1] = test system: posumbu knotweed; test: Test Example 3: herbicidal effects in soil treatment; conditions: dose 3.2 g/a
In short: (§1)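 Seeds were sown in sterilized diluvial soil and covered with about 1.5 cm of soil. Compounds, formulated as emulsifiable concentrates and diluted with water, were sprayed evenly over the soil surface at set doses in g/a. Herbicidal effect was scored on a rating scale three weeks later.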

[2] = test system: redroot pigweed; test: as above; conditions: dose 3.2 g/a
In short: as §1

[3] = test system: common chickweed; test: as above; conditions: dose 3.2 g/a
In short: as §1

[4] = test system: barnyardgrass; test: as above; conditions: dose 3.2 g/a
In short: as §1

[5] = test system: water foxtail; test: as above; conditions: dose 3.2 g/a
In short: as §1

[6] = test system: common ragweed; test: as above; conditions: dose 3.2 g/a
In short: as §1

[7] = test system: giant foxtail; test: as above; conditions: dose 3.2 g/a
In short: as §1

[8] = test system: Italian ryegrass; test: as above; conditions: dose 3.2 g/a
In short: as §1

[9] = test system: large crabgrass; test: as above; conditions: dose 3.2 g/a
In short: as §1

[10] = test system: velvetleaf; test: as above; conditions: dose 3.2 g/a
In short: as §1

[11] = test system: common lambsquater; test: as above; conditions: dose 3.2 g/a
In short: as §1

[12] = test system: posumbu knotweed; test: Test Example 4: herbicidal effect in foliage treatment; conditions: dose 3.2 g/a, three weeks after application
In short: (§2)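 Visual herbicidal scores on a graded scale were recorded three weeks after foliar application. Compounds went on as diluted emulsifiable concentrates at predetermined g/a to plants grown 14 days in a 25 to 30° C greenhouse.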

[13] = test system: redroot pigweed; test: as above; conditions: dose 3.2 g/a, three weeks after application
In short: as §2

[14] = test system: common chickweed; test: as above; conditions: dose 3.2 g/a, three weeks after application
In short: as §2

[15] = test system: barnyardgrass; test: as above; conditions: dose 3.2 g/a, three weeks after application
In short: as §2

[16] = test system: water foxtail; test: as above; conditions: dose 3.2 g/a, three weeks after application
In short: as §2

[17] = test system: beadstraw; test: as above; conditions: dose 3.2 g/a, three weeks after application
In short: as §2

[18] = test system: common ragweed; test: as above; conditions: dose 3.2 g/a, three weeks after application
In short: as §2

[19] = test system: giant foxtail; test: as above; conditions: dose 3.2 g/a, three weeks after application
In short: as §2

[20] = test system: Italian ryegrass; test: as above; conditions: dose 3.2 g/a, three weeks after application
In short: as §2

[21] = test system: large crabgrass; test: as above; conditions: dose 3.2 g/a, three weeks after application
In short: as §2

[22] = test system: velvetleaf; test: as above; conditions: dose 3.2 g/a, three weeks after application
In short: as §2

[23] = test system: common lambsquater; test: as above; conditions: dose 3.2 g/a, three weeks after application
In short: as §2

[24] = test system: transplanted rice; test: Test Example 1: preemergence treatment under submerged conditions, effect on crop; conditions: dose 2.52 g/a
In short: (§3)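 Scoring 0 (<5% mortality) to 5 (≥90%) was done three weeks after preemergence application to the water surface of submerged (4 cm) alluvial soil, doses given as g per are. Weeds were seeded and 2.5-leaf rice transplanted on the treatment day; greenhouse at 25–30 °C.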

[25] = test system: barnyardgrass; test: Test Example 1: herbicidal effects in preemergence treatment under submerged conditions; conditions: dose 2.52 g/a
In short: as §3

[26] = test system: bulrush; test: as above; conditions: dose 2.52 g/a
In short: as §3

[27] = test system: ducksalad; test: as above; conditions: dose 2.52 g/a
In short: as §3

[28] = test system: barnyardgrass; test: Test Example 2: herbicidal effects during the vegetation period under submerged conditions; conditions: treatment during the vegetation period under submerged conditions; dose 2.52 g/a
In short: (§4)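 Barnyardgrass, bulrush and ducksalad were co-sown in alluvial soil flooded to 4 cm and grown in a greenhouse at 25 to 30° C. At the 1- or 2-leaf stage, water-diluted emulsifiable concentrates went onto the water surface at set doses (g/a). Herbicidal effect was scored three weeks later on a graded scale.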

[29] = test system: bulrush; test: as above; conditions: treatment during the vegetation period under submerged conditions; dose 2.52 g/a
In short: as §4

[30] = test system: ducksalad; test: as above; conditions: treatment during the vegetation period under submerged conditions; dose 2.52 g/a
In short: as §4

SMILES: CCC(=O)N(c1ccccc1CN1COC(C)(CC)CC1=O)S(=O)(=O)C(F)(F)F (centres unmarked) [II-41]
- M: posumbu knotweed, herbicidal effect (evaluation scale 0-5) [1]: 4 (mortality of at least 70% and less than 90%)
- K: redroot pigweed, herbicidal effect (evaluation scale 0-5) [2]: 2 (mortality of at least 20% and less than 40%)
- N: common chickweed, herbicidal effect (evaluation scale 0-5) [3]: 5 (mortality of 90% or above (nearly complete death))
- A: barnyardgrass, herbicidal effect (evaluation scale 0-5) [4]: 5 (mortality of 90% or above (nearly complete death))
- G: water foxtail, herbicidal effect (evaluation scale 0-5) [5]: 5 (mortality of 90% or above (nearly complete death))
- J: common ragweed, herbicidal effect (evaluation scale 0-5) [6]: 4 (mortality of at least 70% and less than 90%)
- E: giant foxtail, herbicidal effect (evaluation scale 0-5) [7]: 4 (mortality of at least 70% and less than 90%)
- H: Italian ryegrass, herbicidal effect (evaluation scale 0-5) [8]: 5 (mortality of 90% or above (nearly complete death))
- D: large crabgrass, herbicidal effect (evaluation scale 0-5) [9]: 4 (mortality of at least 70% and less than 90%)
- I: velvetleaf, herbicidal effect (evaluation scale 0-5) [10]: 5 (mortality of 90% or above (nearly complete death))
- L: common lambsquater, herbicidal effect (evaluation scale 0-5) [11]: 3 (mortality of at least 40% and less than 70%)
- M: posumbu knotweed, herbicidal effect [12]: 0 (mortality of less than 5% (almost ineffective))
- K: redroot pigweed, herbicidal effect [13]: 0 (mortality of less than 5% (almost ineffective))
- N: common chickweed, herbicidal effect [14]: 3 (mortality of at least 40% and less than 70%)
- A: barnyardgrass, herbicidal effect [15]: 5 (mortality of 90% or above (nearly complete death))
- G: water foxtail, herbicidal effect [16]: 5 (mortality of 90% or above (nearly complete death))
- O: beadstraw, herbicidal effect [17]: 4 (mortality of at least 70% and less than 90%)
- J: common ragweed, herbicidal effect [18]: 3 (mortality of at least 40% and less than 70%)
- E: giant foxtail, herbicidal effect [19]: 4 (mortality of at least 70% and less than 90%)
- H: Italian ryegrass, herbicidal effect [20]: 4 (mortality of at least 70% and less than 90%)
- D: large crabgrass, herbicidal effect [21]: 1 (mortality of at least 5% and less than 20%)
- I: velvetleaf, herbicidal effect [22]: 5 (mortality of 90% or above (nearly complete death))
- L: common lambsquater, herbicidal effect [23]: 2 (mortality of at least 20% and less than 40%)
- a: transplanted rice, effect on crop (evaluation scale 0-5) [24]: 0 (mortality of less than 5% (almost ineffective))
- A: barnyardgrass, herbicidal effect (evaluation scale 0-5) [25]: 5 (mortality of 90% or above (nearly complete death))
- B: bulrush, herbicidal effect (evaluation scale 0-5) [26]: 5 (mortality of 90% or above (nearly complete death))
- C: ducksalad, herbicidal effect (evaluation scale 0-5) [27]: 5 (mortality of 90% or above (nearly complete death))
- A: barnyardgrass, herbicidal effect (evaluation scale 0-5) [28]: 5 (mortality of 90% or above (nearly complete death))
- B: bulrush, herbicidal effect (evaluation scale 0-5) [29]: 5 (mortality of 90% or above (nearly complete death))
- C: ducksalad, herbicidal effect (evaluation scale 0-5) [30]: 5 (mortality of 90% or above (nearly complete death))

SMILES: CCC(=O)N(c1ccccc1CN1COC(C)(C(F)(F)F)CC1=O)S(=O)(=O)C(F)(F)F (centres unmarked) [II-47]
- M: posumbu knotweed, herbicidal effect (evaluation scale 0-5) [1]: 3 (mortality of at least 40% and less than 70%)
- K: redroot pigweed, herbicidal effect (evaluation scale 0-5) [2]: 0 (mortality of less than 5% (almost ineffective))
- A: barnyardgrass, herbicidal effect (evaluation scale 0-5) [4]: 5 (mortality of 90% or above (nearly complete death))
- G: water foxtail, herbicidal effect (evaluation scale 0-5) [5]: 5 (mortality of 90% or above (nearly complete death))
- J: common ragweed, herbicidal effect (evaluation scale 0-5) [6]: 4 (mortality of at least 70% and less than 90%)
- E: giant foxtail, herbicidal effect (evaluation scale 0-5) [7]: 4 (mortality of at least 70% and less than 90%)
- H: Italian ryegrass, herbicidal effect (evaluation scale 0-5) [8]: 3 (mortality of at least 40% and less than 70%)
- D: large crabgrass, herbicidal effect (evaluation scale 0-5) [9]: 5 (mortality of 90% or above (nearly complete death))
- I: velvetleaf, herbicidal effect (evaluation scale 0-5) [10]: 4 (mortality of at least 70% and less than 90%)
- L: common lambsquater, herbicidal effect (evaluation scale 0-5) [11]: 3 (mortality of at least 40% and less than 70%)
- M: posumbu knotweed, herbicidal effect [12]: 2 (mortality of at least 20% and less than 40%)
- K: redroot pigweed, herbicidal effect [13]: 0 (mortality of less than 5% (almost ineffective))
- N: common chickweed, herbicidal effect [14]: 3 (mortality of at least 40% and less than 70%)
- A: barnyardgrass, herbicidal effect [15]: 4 (mortality of at least 70% and less than 90%)
- G: water foxtail, herbicidal effect [16]: 2 (mortality of at least 20% and less than 40%)
- O: beadstraw, herbicidal effect [17]: 4 (mortality of at least 70% and less than 90%)
- J: common ragweed, herbicidal effect [18]: 2 (mortality of at least 20% and less than 40%)
- E: giant foxtail, herbicidal effect [19]: 2 (mortality of at least 20% and less than 40%)
- H: Italian ryegrass, herbicidal effect [20]: 0 (mortality of less than 5% (almost ineffective))
- D: large crabgrass, herbicidal effect [21]: 1 (mortality of at least 5% and less than 20%)
- I: velvetleaf, herbicidal effect [22]: 4 (mortality of at least 70% and less than 90%)
- L: common lambsquater, herbicidal effect [23]: 0 (mortality of less than 5% (almost ineffective))
- a: transplanted rice, effect on crop (evaluation scale 0-5) [24]: 0 (mortality of less than 5% (almost ineffective))
- A: barnyardgrass, herbicidal effect (evaluation scale 0-5) [25]: 5 (mortality of 90% or above (nearly complete death))
- B: bulrush, herbicidal effect (evaluation scale 0-5) [26]: 5 (mortality of 90% or above (nearly complete death))
- C: ducksalad, herbicidal effect (evaluation scale 0-5) [27]: 5 (mortality of 90% or above (nearly complete death))
- A: barnyardgrass, herbicidal effect (evaluation scale 0-5) [28]: 4 (mortality of at least 70% and less than 90%)
- B: bulrush, herbicidal effect (evaluation scale 0-5) [29]: 5 (mortality of 90% or above (nearly complete death))
- C: ducksalad, herbicidal effect (evaluation scale 0-5) [30]: 5 (mortality of 90% or above (nearly complete death))
